Measurements as given in patent US20060069132A1, “Azolecarboxamide herbicides” (priority 2004, published 2006).

Columns and labels:
[1] = system: velvetleaf; assay: Test C pre-/postemergence herbicide test; assay type: in vivo, Abutilon theophrasti
Procedure, shortened: (§1)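 Emerged plants at the 1- to 4-leaf stage (2–18 cm), or freshly planted seeds, received test chemicals in a non-phytotoxic solvent mixture with surfactant. Response was visually scored against controls after 12 to 14 days in the greenhouse, on a 0 (no effect) to 100 (complete control) scale.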

[2] = system: eastern black nightshade; assay: Test C pre-/postemergence herbicide test; assay type: in vivo, Solanum ptycanthum
Procedure, shortened: as §1

[3] = system: barnyardgrass; assay: Test C flooded paddy test; assay type: in vivo, Echinochloa crus-galli; conditions: Echinochloa crus-galli
Procedure, shortened: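 Injury scored visually against controls on a 0 (no effect) to 100 (complete control) scale, 12 to 14 days after treatment in greenhouse. Flooded paddy plants treated at 2-leaf stage; postemergence plants at 1- to 4-leaf stage, 2 to 18 cm tall.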

[4] = system: pigweed; assay: Test C pre-/postemergence herbicide test; assay type: in vivo, Amaranthus retroflexus
Procedure, shortened: as §1

[5] = system: ducksalad; assay: Test C flooded paddy test; assay type: in vivo, Heteranthera limosa; conditions: Heteranthera limosa
[6] = system: smallflower umbrella sedge; assay: Test C flooded paddy test; assay type: in vivo, Cyperus difformis; conditions: Cyperus difformis
[7] = system: large crabgrass; assay: Test C pre-/postemergence herbicide test; assay type: in vivo, Digitaria sanguinalis
Procedure, shortened: as §1

[8] = system: common ragweed; assay: Test C pre-/postemergence herbicide test; assay type: in vivo, Ambrosia elatior
Procedure, shortened: as §1

[9] = system: cocklebur; assay: Test C pre-/postemergence herbicide test; assay type: in vivo, Xanthium strumarium
Procedure, shortened: as §1

[10] = system: lambsquarters; assay: Test C pre-/postemergence herbicide test; assay type: in vivo, Chenopodium album
Procedure, shortened: as §1

[11] = system: corn; assay: Test C pre-/postemergence herbicide test; assay type: in vivo, Zea mays
Procedure, shortened: as §1

[12] = system: common (oilseed) sunflower; assay: Test C pre-/postemergence herbicide test; assay type: in vivo, Helianthus annuus
Procedure, shortened: as §1

CCn1nc2c(c1C(=O)Nc1cc(C(=O)N(C)C)ccc1F)CCC2(C)C [Compound 352, N-[5-[(dimethylamino)carbonyl]-2-fluorophenyl]-2-ethyl-2,4,5,6-tetrahydro-6,6-dimethyl-3-cyclopentapyrazolecarboxamide]
Plant response rating (0 = no effect, 100 = complete control), Velvetleaf ([1]; 125 g ai/ha, preemergence): 5
pest or weed control at 62 g/ha ([1]; Abutilon theophrasti, pre-emergence, 62 g ai/ha, preemergence, scale 0 to 100, read-out: Plant response rating, Velvetleaf): 0%
pest or weed control at 250 g/ha ([1]; Abutilon theophrasti, pre-emergence, 250 g ai/ha, scale 0-100, read-out: Plant response rating, Velvetleaf): 70%
pest or weed control at 500 g/ha ([1]; Abutilon theophrasti, pre-emergence, 500 g ai/ha, scale 0 to 100 (0 no effect, 100 complete control), visual, 12 to 14 days, read-out: Plant response rating, Velvetleaf): 100%
Plant response rating (0 = no effect, 100 = complete control), Nightshade ([2]; 125 g ai/ha, preemergence): 0
pest or weed control at 62 g/ha ([2]; pre-emergence, 62 g ai/ha, preemergence, scale 0 to 100, read-out: Plant response rating, Nightshade): 0%
pest or weed control at 250 g/ha ([2]; pre-emergence, 250 g ai/ha, scale 0-100, read-out: Plant response rating, Nightshade): 50%
pest or weed control at 500 g/ha ([2]; pre-emergence, 500 g ai/ha, scale 0 to 100 (0 no effect, 100 complete control), visual, 12 to 14 days, read-out: Plant response rating, Nightshade): 100%
pest or weed control at 62 g/ha ([3]; 62 g ai/ha, scale 0 to 100 (0 no effect, 100 complete control), read-out: Barnyardgrass plant response rating): 25%
pest or weed control at 125 g/ha ([3]; 125 g ai/ha, scale 0 to 100 (0 no effect, 100 complete control), read-out: Barnyardgrass plant response rating): 45%
pest or weed control at 250 g/ha ([3]; 250 g ai/ha, scale of 0 to 100, 0 is no effect, 100 is complete control, read-out: Barnyardgrass plant response rating): 65%
pest or weed control at 500 g/ha ([3]; 500 g ai/ha, visual rating after 12 to 14 days, scale 0 to 100 (0 no effect, 100 complete control), read-out: Plant response rating, Barnyardgrass): 90%
Plant response rating (0 = no effect, 100 = complete control), Pigweed ([4]; 125 g ai/ha, preemergence): 85
pest or weed control at 62 g/ha ([4]; Amaranthus retroflexus, pre-emergence, 62 g ai/ha, preemergence, scale 0 to 100, read-out: Plant response rating, Pigweed): 40%
pest or weed control at 250 g/ha ([4]; Amaranthus retroflexus, pre-emergence, 250 g ai/ha, scale 0-100, read-out: Plant response rating, Pigweed): 100%
pest or weed control at 500 g/ha ([4]; Amaranthus retroflexus, pre-emergence, 500 g ai/ha, scale 0 to 100 (0 no effect, 100 complete control), visual, 12 to 14 days, read-out: Plant response rating, Pigweed): 100%
pest or weed control at 62 g/ha ([5]; 62 g ai/ha, scale 0 to 100, read-out: Ducksalad plant response rating): 20%
pest or weed control at 125 g/ha ([5]; 125 g ai/ha, scale 0 to 100 (0 no effect, 100 complete control), read-out: Ducksalad plant response rating): 65%
pest or weed control at 250 g/ha ([5]; 250 g ai/ha, scale of 0 to 100, 0 is no effect, 100 is complete control, read-out: Ducksalad plant response rating): 85%
pest or weed control at 500 g/ha ([5]; 500 g ai/ha, visual rating after 12 to 14 days, scale 0 to 100 (0 no effect, 100 complete control), read-out: Plant response rating, Ducksalad): 95%
pest or weed control at 62 g/ha ([6]; 62 g ai/ha, scale 0 to 100, read-out: Sedge, Umbrella plant response rating): 50%
pest or weed control at 125 g/ha ([6]; 125 g ai/ha, scale 0 to 100 (0 no effect, 100 complete control), read-out: Sedge, Umbrella plant response rating): 75%
pest or weed control at 250 g/ha ([6]; 250 g ai/ha, scale of 0 to 100, 0 is no effect, 100 is complete control, read-out: Sedge, Umbrella plant response rating): 90%
pest or weed control at 500 g/ha ([6]; 500 g ai/ha, visual rating after 12 to 14 days, scale 0 to 100 (0 no effect, 100 complete control), read-out: Plant response rating, Sedge, Umbrella): 95%
Plant response rating (0 = no effect, 100 = complete control), Crabgrass, Large ([7]; 125 g ai/ha, preemergence): 85
pest or weed control at 62 g/ha ([7]; Digitaria sanguinalis, pre-emergence, 312 h, 62 g ai/ha, preemergence, scale 0 to 100, read-out: Plant response rating, Crabgrass, Large): 55%
pest or weed control at 250 g/ha ([7]; Digitaria sanguinalis, pre-emergence, 312 h, 250 g ai/ha, scale 0-100, read-out: Plant response rating, Crabgrass, Large): 100%
pest or weed control at 500 g/ha ([7]; Digitaria sanguinalis, pre-emergence, 312 h, 500 g ai/ha, scale 0 to 100 (0 no effect, 100 complete control), visual, 12 to 14 days, read-out: Plant response rating, Crabgrass, Large): 100%
Plant response rating (0 = no effect, 100 = complete control), Ragweed ([8]; 125 g ai/ha, preemergence): 40
pest or weed control at 62 g/ha ([8]; Ambrosia artemisiifolia, pre-emergence, 62 g ai/ha, preemergence, scale 0 to 100, read-out: Plant response rating, Ragweed): 0%
pest or weed control at 250 g/ha ([8]; Ambrosia artemisiifolia, pre-emergence, 250 g ai/ha, scale 0-100, read-out: Plant response rating, Ragweed): 50%
pest or weed control at 500 g/ha ([8]; Ambrosia artemisiifolia, pre-emergence, 500 g ai/ha, scale 0 to 100 (0 no effect, 100 complete control), visual, 12 to 14 days, read-out: Plant response rating, Ragweed): 60%
Plant response rating (0 = no effect, 100 = complete control), Cocklebur ([9]; 125 g ai/ha, preemergence): 0
pest or weed control at 62 g/ha ([9]; Xanthium strumarium, pre-emergence, 312 h, 62 g ai/ha, preemergence, scale 0 to 100, read-out: Plant response rating, Cocklebur): 0%
pest or weed control at 250 g/ha ([9]; Xanthium strumarium, pre-emergence, 312 h, 250 g ai/ha, scale 0-100, read-out: Plant response rating, Cocklebur): 0%
pest or weed control at 500 g/ha ([9]; Xanthium strumarium, pre-emergence, 312 h, 500 g ai/ha, scale 0 to 100 (0 no effect, 100 complete control), visual, 12 to 14 days, read-out: Plant response rating, Cocklebur): 30%
Plant response rating (0 = no effect, 100 = complete control), Lambsquarters ([10]; 125 g ai/ha, preemergence): 100
pest or weed control at 62 g/ha ([10]; Chenopodium album, pre-emergence, 62 g ai/ha, preemergence, scale 0 to 100, read-out: Plant response rating, Lambsquarters): 85%
pest or weed control at 250 g/ha ([10]; Chenopodium album, pre-emergence, 250 g ai/ha, scale 0-100, read-out: Plant response rating, Lambsquarters): 100%
pest or weed control at 500 g/ha ([10]; Chenopodium album, pre-emergence, 500 g ai/ha, scale 0 to 100 (0 no effect, 100 complete control), visual, 12 to 14 days, read-out: Plant response rating, Lambsquarters): 100%
Plant response rating (0 = no effect, 100 = complete control), Corn ([11]; 125 g ai/ha, preemergence): 15
Corn plant response rating (crop injury, 0 = no effect, 100 = complete kill) at 62 g/ha ([11]; Zea mays, pre-emergence, 312 h, 62 g ai/ha, preemergence, scale 0 to 100): 0%
Corn plant response rating (crop injury, 0 = no effect, 100 = complete kill) at 250 g/ha ([11]; Zea mays, pre-emergence, 312 h, 250 g ai/ha, scale 0-100): 30%
Corn plant response rating (crop injury, 0 = no effect, 100 = complete kill) at 500 g/ha ([11]; Zea mays, pre-emergence, 312 h, 500 g ai/ha, scale 0 to 100 (0 no effect, 100 complete control), visual, 12 to 14 days): 50%
Plant response rating (0 = no effect, 100 = complete control), Sunflower ([12]; 125 g ai/ha, preemergence): 0
pest or weed control at 62 g/ha ([12]; Helianthus annuus, pre-emergence, 62 g ai/ha, preemergence, scale 0 to 100, read-out: Plant response rating, Sunflower): 0%
pest or weed control at 250 g/ha ([12]; Helianthus annuus, pre-emergence, 250 g ai/ha, scale 0-100, read-out: Plant response rating, Sunflower): 0%
pest or weed control at 500 g/ha ([12]; Helianthus annuus, pre-emergence, 500 g ai/ha, scale 0 to 100 (0 no effect, 100 complete control), visual, 12 to 14 days, read-out: Plant response rating, Sunflower): 0%
